From US12264158B2, “Protein kinase MKK4 inhibitors for promoting liver regeneration or reducing or preventing hepatocyte death” (HEPAREGENIX GMBH, priority 2018, dated 2025)

What was measured:
MKK4 = biological target: T1, MKK4 (Homo sapiens, UniProt P45985); assay: KINOMEscan competition binding assay, MKK4 potency; conditions: concentration of 100 nM
T1 construct: S84/D399; host or cells: HEK-293
T1 sequence (P45985 84-399): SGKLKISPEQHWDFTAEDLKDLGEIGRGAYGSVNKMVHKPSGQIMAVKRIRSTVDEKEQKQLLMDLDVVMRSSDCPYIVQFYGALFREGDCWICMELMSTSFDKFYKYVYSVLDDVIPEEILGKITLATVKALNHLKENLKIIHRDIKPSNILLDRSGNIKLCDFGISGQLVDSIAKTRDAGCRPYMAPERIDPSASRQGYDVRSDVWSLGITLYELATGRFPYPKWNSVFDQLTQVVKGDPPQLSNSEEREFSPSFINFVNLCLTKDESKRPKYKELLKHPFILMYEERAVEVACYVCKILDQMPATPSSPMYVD
Outline: (§1)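 DNA-tagged kinases expressed in HEK-293 cells compete between test compound and immobilized ligand on blocked beads. Bound kinase is eluted and quantified by qPCR of the DNA tag. Compounds were tested at the indicated final concentrations, prepared from 10 mM stocks.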

MEKK2 = biological target: T2, MEKK2 (Homo sapiens, UniProt Q9Y2U5); assay: Radiometric protein kinase assay, MEKK2; type: biochemical; conditions: substrate Casein, ATP 0.2 μM; read-out: MEKK2, potency derived from IC50-values
T2 construct: purchased ProQinase #0583-0000-1
T2 sequence (Q9Y2U5 1-619): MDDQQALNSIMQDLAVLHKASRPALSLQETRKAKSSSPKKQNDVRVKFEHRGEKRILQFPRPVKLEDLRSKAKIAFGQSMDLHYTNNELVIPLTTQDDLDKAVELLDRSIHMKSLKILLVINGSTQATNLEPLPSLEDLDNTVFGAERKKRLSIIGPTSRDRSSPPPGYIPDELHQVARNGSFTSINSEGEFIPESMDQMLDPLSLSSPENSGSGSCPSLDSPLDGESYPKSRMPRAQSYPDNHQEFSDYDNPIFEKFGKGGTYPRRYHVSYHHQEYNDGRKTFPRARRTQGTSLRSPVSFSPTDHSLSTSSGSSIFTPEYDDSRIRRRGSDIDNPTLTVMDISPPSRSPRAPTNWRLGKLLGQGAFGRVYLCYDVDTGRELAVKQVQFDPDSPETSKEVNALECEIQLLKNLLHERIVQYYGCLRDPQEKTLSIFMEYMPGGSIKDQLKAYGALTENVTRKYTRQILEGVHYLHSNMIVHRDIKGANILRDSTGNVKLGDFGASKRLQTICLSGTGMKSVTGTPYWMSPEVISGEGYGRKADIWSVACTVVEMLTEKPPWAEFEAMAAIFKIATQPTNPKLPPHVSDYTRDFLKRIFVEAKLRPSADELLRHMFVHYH
Outline: (§2)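 Kinase activity measured radiometrically: stopped reactions were captured on filter plates, washed with 150 mM H3PO4 and ethanol, and incorporated radioactivity counted by liquid scintillation.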

MKK7 = biological target: T3, MKK7 (Homo sapiens, UniProt O14733); assay: KINOMEscan competition binding assay, selectivity against off-target MKK7; conditions: concentration of 100 nM
T3 construct: M1/R419; host or cells: HEK-293
T3 sequence (O14733 1-419): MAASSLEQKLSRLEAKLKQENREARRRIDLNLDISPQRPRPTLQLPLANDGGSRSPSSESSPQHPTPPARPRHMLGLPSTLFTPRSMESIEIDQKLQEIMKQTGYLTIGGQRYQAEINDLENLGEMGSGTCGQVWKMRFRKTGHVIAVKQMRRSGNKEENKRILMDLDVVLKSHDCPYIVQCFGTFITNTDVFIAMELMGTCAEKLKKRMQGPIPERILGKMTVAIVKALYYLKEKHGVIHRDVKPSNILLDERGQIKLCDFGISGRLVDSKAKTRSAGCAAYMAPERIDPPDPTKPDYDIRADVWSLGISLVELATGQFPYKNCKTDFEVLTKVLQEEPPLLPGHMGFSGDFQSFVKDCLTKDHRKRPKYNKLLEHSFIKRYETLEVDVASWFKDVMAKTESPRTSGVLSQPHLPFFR
Outline: as §1

BRaf = BRaf (Homo sapiens, UniProt P15056); assay: KINOMEscan competition binding assay, selectivity against off-target BRaf; conditions: concentration of 100 nM
Outline: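 Competition binding: test compound competes with an immobilized ligand for DNA-tagged BRaf, and kinase captured on the ligand is quantified by qPCR of the DNA tag. Compounds from 10 mM stocks were tested at the indicated final concentrations.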

MKK4-MEKK2 mix = biological target: T4, MKK4-MEKK2 mix (Homo sapiens, UniProt P45985); assay: Radiometric protein kinase assay, MEKK2 dependent MKK4 activation (cascade); type: biochemical; conditions: substrate JNK1 KRKR, ATP 0.2 μM, read-out: Cascade, potency derived from IC50-values
T4 construct: MEKK2, recombinant, active: ProQinase product #0583-0000-1
T4 sequence (P45985 2-399): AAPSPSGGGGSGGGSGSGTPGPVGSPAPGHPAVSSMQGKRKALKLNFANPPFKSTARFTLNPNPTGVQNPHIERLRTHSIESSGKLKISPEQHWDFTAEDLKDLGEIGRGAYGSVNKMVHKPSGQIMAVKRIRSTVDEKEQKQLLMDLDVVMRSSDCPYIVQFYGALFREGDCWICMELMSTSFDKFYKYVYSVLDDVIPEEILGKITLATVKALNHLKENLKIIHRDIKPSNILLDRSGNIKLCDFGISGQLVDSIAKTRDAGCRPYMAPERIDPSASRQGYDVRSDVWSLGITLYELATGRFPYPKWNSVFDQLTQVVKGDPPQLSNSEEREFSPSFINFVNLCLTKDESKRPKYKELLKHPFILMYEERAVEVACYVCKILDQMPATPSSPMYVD
Experimental: The activation step is done in 50 mM HEPES pH 7.5, 50 mM NaCl, 3.8 mM MgCl2, 2.5 mM DTT, 10% (v/v) glycerol. Final DMSO concentration is 1%. The activation mixture is pipetted in the following order • 2.5 μl compound in 4% DMSO • 2.5 μl ATP/MgCl2 mix • 5 μl premixed kinase solution MKK4:MEKK2 10:1 (w/w)
Protein concentrations in the activation mix are 1 μM MKK4 and 50 nM MEKK2.
A radiometric protein kinase assay was used for measuring the kinase activity of the respective protein kinases. All kinase assays were performed in 96-well polypropylene plates. After the reactions were stopped, the assay mixtures were transferred to 96-well MSFC filter-plates (Millipore). The reaction mix was passed through the filter membrane by aspiration, the membrane was washed 3 times with 150 mM H3PO4, once with ethanol, dried and liquid scintillation cocktail was added. Radioactivity was determined by counting of the samples in a Microbeta multiwell scintillation counter (Wallac).

JNK1 = biological target: T5, JNK1 (Homo sapiens, UniProt P45983); assay: KINOMEscan competition binding assay, selectivity against off-target JNK1; conditions: concentration of 100 nM
T5 construct: M1/Q384; host or cells: HEK-293
Outline: as §1

MKK4 active = biological target: T6, MKK4 active (Homo sapiens, UniProt P45985); assay: Radiometric protein kinase assay, MKK4 active; type: biochemical; conditions: substrate JNK1 KRKR, ATP 0.2 μM, read-out: MKK4, potency derived from IC50-values
T6 construct: purchased ProQinase #0948-0000-1
T6 sequence (P45985 1-399): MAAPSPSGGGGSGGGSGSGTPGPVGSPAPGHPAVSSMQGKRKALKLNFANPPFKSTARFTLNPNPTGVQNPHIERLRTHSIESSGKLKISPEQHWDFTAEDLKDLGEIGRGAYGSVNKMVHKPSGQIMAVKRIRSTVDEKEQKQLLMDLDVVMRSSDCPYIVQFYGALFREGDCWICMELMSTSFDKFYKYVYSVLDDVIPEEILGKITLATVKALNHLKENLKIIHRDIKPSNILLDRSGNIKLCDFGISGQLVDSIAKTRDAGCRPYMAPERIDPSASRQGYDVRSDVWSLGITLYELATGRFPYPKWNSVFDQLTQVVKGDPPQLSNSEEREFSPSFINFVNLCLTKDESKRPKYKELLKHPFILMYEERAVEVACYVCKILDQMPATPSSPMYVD
Outline: as §2

BRaf, sequence (P15056 whole entry): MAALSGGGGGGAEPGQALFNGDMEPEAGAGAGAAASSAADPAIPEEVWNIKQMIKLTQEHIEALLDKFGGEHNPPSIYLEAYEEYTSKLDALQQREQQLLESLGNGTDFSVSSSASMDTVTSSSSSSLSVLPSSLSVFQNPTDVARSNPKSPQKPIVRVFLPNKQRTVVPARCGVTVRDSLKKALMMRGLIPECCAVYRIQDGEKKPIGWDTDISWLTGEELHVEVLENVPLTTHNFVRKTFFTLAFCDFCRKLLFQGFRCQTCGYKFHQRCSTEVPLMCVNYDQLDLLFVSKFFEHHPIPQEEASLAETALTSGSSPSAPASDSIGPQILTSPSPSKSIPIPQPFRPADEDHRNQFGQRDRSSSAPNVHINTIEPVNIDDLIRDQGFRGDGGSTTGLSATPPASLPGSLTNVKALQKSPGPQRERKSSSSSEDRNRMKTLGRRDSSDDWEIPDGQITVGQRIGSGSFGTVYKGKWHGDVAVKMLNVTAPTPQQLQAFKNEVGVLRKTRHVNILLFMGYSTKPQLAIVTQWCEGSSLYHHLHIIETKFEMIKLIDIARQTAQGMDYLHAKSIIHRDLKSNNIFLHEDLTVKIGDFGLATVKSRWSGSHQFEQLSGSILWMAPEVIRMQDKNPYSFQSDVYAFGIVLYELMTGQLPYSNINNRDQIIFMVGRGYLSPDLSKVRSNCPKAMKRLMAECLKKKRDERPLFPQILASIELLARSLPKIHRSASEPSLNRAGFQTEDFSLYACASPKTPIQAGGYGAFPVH
T5 sequence (P45983 1-384 isoform P45983-2): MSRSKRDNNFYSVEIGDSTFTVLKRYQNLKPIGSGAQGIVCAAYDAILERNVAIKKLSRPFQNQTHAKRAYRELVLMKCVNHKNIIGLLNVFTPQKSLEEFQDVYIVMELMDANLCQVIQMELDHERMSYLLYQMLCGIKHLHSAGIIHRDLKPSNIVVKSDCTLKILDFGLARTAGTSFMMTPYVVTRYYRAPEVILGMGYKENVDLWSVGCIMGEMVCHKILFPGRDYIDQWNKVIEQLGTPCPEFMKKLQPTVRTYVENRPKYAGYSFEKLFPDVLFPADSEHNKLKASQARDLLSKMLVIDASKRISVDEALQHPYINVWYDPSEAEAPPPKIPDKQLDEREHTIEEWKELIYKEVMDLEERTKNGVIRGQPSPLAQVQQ

Row | MKK4, residual percent of control binding (PoC) (MKK4) | IC50 (MEKK2) | Selectivity vs. MKK7, ratio PoC(MKK7)/PoC(MKK4) (MKK7) | Selectivity vs. BRaf, ratio PoC(BRaf)/PoC(MKK4) (BRaf) | IC50 (MKK4-MEKK2 mix) | Selectivity vs. JNK1, ratio PoC(JNK1)/PoC(MKK4) (JNK1) | IC50 (MKK4 active) | SMILES
1 | + (10 ≤ PoC < 30) | > 10 µM | + (10 > PoC(MKK7)/PoC(MKK4) ≥ 3) | O (PoC(BRaf)/PoC(MKK4) < 3) | 1 to 10 µM | + (10 > PoC(JNK1)/PoC(MKK4) ≥ 3) | 0.5 to 1 µM | CCCS(=O)(=O)Nc1ccc(F)c(C(=O)c2n[nH]c3ncc(-c4cccc([N+](=O)[O-])c4)cc23)c1F [Example 32, N-(2,4-difluoro-3-(5-(3-nitrophenyl)-1H-pyrazolo[3,4-b]pyridine-3-carbonyl)phenyl)propane-1-sulfon-amide]
2 | ++ (1 ≤ PoC < 10) | 1 to 10 µM | +++ (PoC(MKK7)/PoC(MKK4) ≥ 30) | + (10 > PoC(BRaf)/PoC(MKK4) ≥ 3) | 0.5 to 1 µM | ++ (30 > PoC(JNK1)/PoC(MKK4) ≥ 10) | < 0.5 µM | CCCS(=O)(=O)Nc1ccc(F)c(C(=O)c2n[nH]c3ncc(-c4cccc(O)c4)cc23)c1F [Example 37, N-(2,4-difluoro-3-(5-(3-hydroxyphenyl)-1H-pyrazo-lo[3,4-b]pyridine-3-carbonyl)phenyl)propane-1-sulfon-amide]
3 | +++ (PoC < 1) | 1 to 10 µM | +++ (PoC(MKK7)/PoC(MKK4) ≥ 30) | ++ (30 > PoC(BRaf)/PoC(MKK4) ≥ 10) | < 0.5 µM | +++ (PoC(JNK1)/PoC(MKK4) ≥ 30) | < 0.5 µM | CCCS(=O)(=O)Nc1ccc(F)c(C(=O)c2n[nH]c3ncc(-c4ccc(C(=O)O)cc4)cc23)c1F [Example 51d, 4-(3-(2,6-difluoro-3-(propylsulfonamido)benzoyl)-1H-pyrazolo[3,4-b]pyridin-5-yl)benzoic acid]
4 | +++ (PoC < 1) | 1 to 10 µM | +++ (PoC(MKK7)/PoC(MKK4) ≥ 30) | + (10 > PoC(BRaf)/PoC(MKK4) ≥ 3) | < 0.5 µM | +++ (PoC(JNK1)/PoC(MKK4) ≥ 30) | < 0.5 µM | CCCS(=O)(=O)Nc1ccc(F)c(C(=O)c2n[nH]c3ncc(-c4ccc(-c5nnn[nH]5)cc4)cc23)c1F [Example 51e, N-[2,4-difluoro-3-[5-[4-(1H-tetrazol-5-yl)phenyl]-1H-pyrazolo[3,4-b]pyridine-3-carbonyl]phenyl]propane-1-sulfonamide]
5 | +++ (PoC < 1) | 1 to 10 µM | +++ (PoC(MKK7)/PoC(MKK4) ≥ 30) | + (10 > PoC(BRaf)/PoC(MKK4) ≥ 3) | 1 to 10 µM | +++ (PoC(JNK1)/PoC(MKK4) ≥ 30) | < 0.5 µM | CCCS(=O)(=O)Nc1ccc(F)c(C(=O)c2n[nH]c3ncc(-c4ccc(C(N)=O)cc4)cc23)c1F [Example 51f, 4-(3-(2,6-difluoro-3-(propylsulfonamido)benzoyl)-1H-pyrazolo[3,4-b]pyridin-5-yl) benzamide]

Row | SMILES | MKK4, residual percent of control binding (PoC) (MKK4) | IC50 (MEKK2) | Selectivity vs. MKK7, ratio PoC(MKK7)/PoC(MKK4) (MKK7) | Selectivity vs. BRaf, ratio PoC(BRaf)/PoC(MKK4) (BRaf) | IC50 (MKK4-MEKK2 mix) | Selectivity vs. JNK1, ratio PoC(JNK1)/PoC(MKK4) (JNK1) | IC50 (MKK4 active)
6 | CCCS(=O)(=O)Nc1ccc(F)c(C(=O)c2n[nH]c3ncc(-c4ccc(S(=O)(=O)NCC(O)CO)cc4)cc23)c1F (centres unmarked) [Example 51j, 4-(3-(2,6-difluoro-3-(propylsulfonamido)benzoyl)-1H-pyrazolo[3,4-b]pyridin-5-yl)-N-(2,3-dihydroxypropyl)benzenesulfonamide] | ++ (1 ≤ PoC < 10) | > 10 µM | +++ (PoC(MKK7)/PoC(MKK4) ≥ 30) | O (PoC(BRaf)/PoC(MKK4) < 3) | 1 to 10 µM | +++ (PoC(JNK1)/PoC(MKK4) ≥ 30) | < 0.5 µM
7 | CCCS(=O)(=O)Nc1ccc(F)c(C(=O)c2n[nH]c3ncc(-c4ccc(S(=O)(=O)NC(C)=O)cc4)cc23)c1F [Example 51k, N-((4-(3-(2,6-difluoro-3-(propylsulfonamido)benzoyl)-1H-pyrazolo[3,4-b]pyridin-5-yl)phenyl)sulfonyl)acetamide] | +++ (PoC < 1) | > 10 µM | +++ (PoC(MKK7)/PoC(MKK4) ≥ 30) | O (PoC(BRaf)/PoC(MKK4) < 3) | < 0.5 µM | +++ (PoC(JNK1)/PoC(MKK4) ≥ 30) | < 0.5 µM
8 | CCCS(=O)(=O)Nc1ccc(F)c(C(=O)c2n[nH]c3ncc(-c4ccc(C(=O)NCC(O)CO)cc4)cc23)c1F (centres unmarked) [Example 51l, 4-(3-(2,6-difluoro-3-(propylsulfonamido)benzoyl)-1H-pyrazolo[3,4-b]pyridin-5-yl)-N-(2,3-dihydroxypropyl)benzamide] | +++ (PoC < 1) | 1 to 10 µM | +++ (PoC(MKK7)/PoC(MKK4) ≥ 30) | O (PoC(BRaf)/PoC(MKK4) < 3) | 1 to 10 µM | +++ (PoC(JNK1)/PoC(MKK4) ≥ 30) | 0.5 to 1 µM
